Source: PubChem BioAssay AID1648 (Sanford-Burnham Center for Chemical Genomics, 2009)
Active and inactive are the calls of the source. No rule for the calls is given here.

These molecules were tested against Serine/threonine-protein kinase mTOR (Homo sapiens) (UniProt P42345) (assay: mTOR FRB domain ligand binding – biophysical, NMR (AID 1648)). Conditions: NMR binding to FRB domain, chemical shift.
Chain of Serine/threonine-protein kinase mTOR (Homo sapiens) (P42345 2015-2114): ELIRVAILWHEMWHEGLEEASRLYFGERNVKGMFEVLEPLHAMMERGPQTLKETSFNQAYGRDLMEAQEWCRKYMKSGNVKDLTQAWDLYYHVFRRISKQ
`C[C@@H]1CC[C@@]2(OC1)O[C@H]1CC3C4CC[C@H]5C[C@@H](O)CC[C@]5(C)C4CC[C@]3(C)[C@H]1[C@@H]2C` (some centres not stated) was tested, and the Kd was > 4 mM (inactive).
In the case of `Cc1noc(C)c1C(=O)N1CCN(c2ncccn2)CC1`, the Kd is reported as > 4 mM (inactive).
`CCS(=O)(=O)N1CCN(c2ccccc2F)CC1` was tested, and the Kd was > 4 mM (inactive).
In the case of `COc1c2c(c(CC=C(C)C)c3oc(=O)c(-c4ccc(O)cc4)c(O)c13)OC(C)(C)C=C2`, the Kd is reported as > 4 mM (inactive).
`COc1cc(N)ncn1` was tested, and the Kd was > 4 mM (inactive).
With `CNC(=O)C(=O)Nc1ccc(F)cc1` the Kd was > 4 mM (inactive).
In the case of `COc1cc(O)c(C(=O)c2ccccc2)cc1O`, the Kd is reported as > 4 mM (inactive).
For `O=C(OCc1c(F)cccc1Cl)c1cnccn1`, the Kd was > 4 mM (inactive).
With `CCOC(=O)N1CCCC1c1cccnc1` (configuration not stated) the Kd was > 4 mM (inactive).
For `C=CC(=O)N1CC2CC(C1)c1cccc(=O)n1C2` (configuration not stated), the Kd was > 4 mM (inactive).
In the case of `Cc1ccc(S(=O)(=O)CC(=O)N(C)C)cc1`, the Kd is reported as > 4 mM (inactive).
For `CS(=O)(=O)N1CCN(c2ncccn2)CC1`, the Kd was > 4 mM (inactive).
For `COc1ccc(-c2nnc(-c3ccc(N)cc3)o2)cc1`, the Kd was > 4 mM (inactive).
In the case of `CNC(=O)N1CCN(C(=O)NC)CC1`, the Kd is reported as > 4 mM (inactive).
For `COC(=O)NNc1ncnc(N)c1[N+](=O)[O-]`, the Kd was > 4 mM (inactive).
In the case of `C=CCSc1[nH]c(=O)cc(C)c1C(N)=O`, the Kd is reported as > 4 mM (inactive).
`O=C(O)CCCN1CNC(=S)NC1` was tested, and the Kd was > 4 mM (inactive).
In the case of `CC12CNCC(C)(CNC1)C2O` (configuration not stated), the Kd is reported as > 4 mM (inactive).
For `Cc1noc(C)c1C(=O)Nc1sc(C)c(C)c1C#N`, the Kd was > 4 mM (inactive).
In the case of `CCN1CCn2c1nc(N1CCOCC1)nc2=O`, the Kd is reported as > 4 mM (inactive).
In the case of `CC(=O)NC(C)(C)C1CC=C(C)/C(=N\O)C1` (configuration not stated), the Kd is reported as > 4 mM (inactive).
For `Cc1nnc(SCc2ccccc2)[nH]c1=O`, the Kd was > 4 mM (inactive).
In the case of `COc1cccc(NC(=O)c2cccs2)c1`, the Kd is reported as > 4 mM (inactive).
For `CNc1ccccc1C(=O)O`, the Kd was > 4 mM (inactive).
In the case of `O=c1cnnc(NCc2ccc(F)cc2)[nH]1`, the Kd is reported as > 4 mM (inactive).
For `O=C(O)c1cccnc1-c1nc2ccccc2s1`, the Kd was > 4 mM (inactive).
`Cc1cccc(CO)n1` was tested, and the Kd was > 4 mM (inactive).
`OCc1ccc(-n2cncn2)cc1` was tested, and the Kd was > 4 mM (inactive).
With `Cc1cc(=O)c2ccccc2n1CC(N)=O` the Kd was > 4 mM (inactive).
With `Nc1cc(=O)[nH]c(SCC(=O)NC2CCCCC2)n1` the Kd was > 4 mM (inactive).
With `Oc1ccccc1N1CCCC1` the Kd was > 4 mM (inactive).
`Cc1ccc(N2C(=O)CC(=O)NC2=O)cc1` was tested, and the Kd was > 4 mM (inactive).
With `COc1ccc(S(=O)(=O)N2CCOCC2)cc1C(C)C` the Kd was > 4 mM (inactive).
With `CS(=O)(=O)c1ccccc1C(=O)Nc1nccs1` the Kd was > 4 mM (inactive).
With `CC(=O)O[C@@H]1CC2C(C)(C)C=CC(=O)[C@]2(C)C2CC[C@@]3(C)[C@H](c4ccoc4)OC(=O)C4OC43[C@@]21C` (some centres not stated) the Kd was > 4 mM (inactive).
With `Cc1occc1C(=O)Nc1nnc(-c2ccncc2)s1` the Kd was > 4 mM (inactive).
In the case of `O=C(c1ncc[nH]1)c1ccccc1C(=O)N1CCOCC1`, the Kd is reported as > 4 mM (inactive).
With `Cc1occc1C(=O)Nc1sccc1C(N)=O` the Kd was > 4 mM (inactive).
For `Cc1sc2nc3n(c(=O)c2c1C)CCCS3`, the Kd was > 4 mM (inactive).
`O=C(O)CC1NCCNC1=O` (configuration not stated) was tested, and the Kd was > 4 mM (inactive).
In the case of `Cn1nc(-c2cccs2)cc1N`, the Kd is reported as > 4 mM (inactive).
In the case of `Cc1nc(-c2cnccn2)sc1C(=O)O`, the Kd is reported as > 4 mM (inactive).
In the case of `CC(=O)O[C@H]1CC[C@@]2(C)C(CC[C@]3(C)C2C(=O)C=C2C4[C@@H](C)[C@H](C)CC[C@]4(C(=O)O)CC[C@]23C)C1(C)C` (some centres not stated), the Kd is reported as > 4 mM (inactive).
With `Cc1cc(C)nc(NC(N)=NCc2ccco2)n1` the Kd was > 4 mM (inactive).
For `O=C(c1cccc(C(F)(F)F)c1)N1CCCC1`, the Kd was > 4 mM (inactive).
`CC(C)Oc1ccc(NC(N)=O)cc1` was tested, and the Kd was > 4 mM (inactive).
In the case of `CC1(C)CC2C1CCC1(C)OC1CCC2(C)O` (configuration not stated), the Kd is reported as > 4 mM (inactive).
In the case of `Cc1cc2c(=O)n(C)c(SCC(N)=O)nc2s1`, the Kd is reported as > 4 mM (inactive).
With `CSc1nc(C)cc(Oc2ccc(=O)n(C)n2)n1` the Kd was > 4 mM (inactive).
With `CSc1ncc(CO)n1Cc1ccccc1` the Kd was > 4 mM (inactive).
With `CNC(=O)c1cc(S(=O)(=O)N(C)C)ccc1Cl` the Kd was > 4 mM (inactive).
`O=C(O)C1CCCN1Cc1c[nH]c2ccccc12` (configuration not stated) was tested, and the Kd was > 4 mM (inactive).
For `OCc1ccc(-n2cccn2)cc1`, the Kd was > 4 mM (inactive).
`Cn1cnc2cc(NC(=O)c3ccco3)ccc21` was tested, and the Kd was > 4 mM (inactive).
In the case of `O=C(O)CNC(=O)c1ccc([N+](=O)[O-])cc1`, the Kd is reported as > 4 mM (inactive).
`NC(CC(=O)O)C(=O)Nc1ccc(Cl)cc1` (configuration not stated) was tested, and the Kd was > 4 mM (inactive).
In the case of `O=C(Nc1ccc(N2CCOCC2)cc1)C1CC1`, the Kd is reported as > 4 mM (inactive).
`CC1(C)NC(=O)N(CCOc2ccc3c(c2)CCC3)C1=O` was tested, and the Kd was > 4 mM (inactive).
For `O=S(=O)(Nc1ccc2c(c1)OCCO2)c1cccs1`, the Kd was > 4 mM (inactive).
In the case of `Cc1nn2c(=O)c(NC(=O)c3ccccc3)cnc2s1`, the Kd is reported as > 4 mM (inactive).
In the case of `O=C(O)c1ccnn1-c1ccccc1`, the Kd is reported as > 4 mM (inactive).
In the case of `Nc1ccc(-c2csnn2)cc1`, the Kd is reported as > 4 mM (inactive).
`O=C1N/C(=N\c2ccccn2)SC1Cc1ccccc1` (configuration not stated) was tested, and the Kd was > 4 mM (inactive).
For `Cc1cc2nc(SCC(=O)O)nc(C)c2cc1C`, the Kd was > 4 mM (inactive).
`c1ccc(-n2cnnc2)nc1` was tested, and the Kd was > 4 mM (inactive).
With `C=CC(C)(O)CC/C=C(\C)CCC=C(C)C` (configuration not stated) the Kd was > 4 mM (inactive).
`CC(=O)OC1CCC2(C)C(=CC=C3C2CCC2(C)C3CCC2C(C)/C=C/C(C)C(C)C)C1(C)C` (configuration not stated) was tested, and the Kd was > 4 mM (inactive).
In the case of `Cc1cc2c(nn1)CCc1nonc1-2`, the Kd is reported as > 4 mM (inactive).
`C=C1C2CC[C@@]3(C)[C@H](c4ccoc4)OC(=O)C[C@]13O[C@H]1CC(=O)C(C)(C)C(CC(=O)OC)C21C` (some centres not stated) was tested, and the Kd was > 4 mM (inactive).
For `CC(C)CCCC(C)C1CCC2C3C[C@@H](O)[C@@]4(O)C[C@@H](O)CC[C@]4(C)C3CC[C@]12C` (some centres not stated), the Kd was > 4 mM (inactive).
For `CCC(=O)Nc1ccc(-c2nn3c(C)nnc3s2)cc1`, the Kd was > 4 mM (inactive).
In the case of `CC(=O)Nc1c(C#N)c(C(C)(C)C)cn1C`, the Kd is reported as > 4 mM (inactive).
For `COc1c2ccccc2nc2occc12`, the Kd was > 4 mM (inactive).
In the case of `COc1ccccc1C(=O)NC1CCN(C)CC1`, the Kd is reported as > 4 mM (inactive).
With `CC(=O)Nc1nc(-c2cccs2)cs1` the Kd was > 4 mM (inactive).
With `Brc1cccc(-c2nnco2)c1` the Kd was > 4 mM (inactive).
For `N#CCCn1c(=O)oc2ccccc21`, the Kd was > 4 mM (inactive).
With `O=C(Oc1ccc(-c2nnco2)cc1)N1CCCCC1` the Kd was > 4 mM (inactive).
For `C=C[C@](C)(O)CCC=C(C)C`, the Kd was > 4 mM (inactive).
`C=C(C)[C@H]1COc2cc3oc(=O)ccc3cc2O1` was tested, and the Kd was > 4 mM (inactive).
`CNC(=S)Nc1cccc(C(=O)O)c1` was tested, and the Kd was > 4 mM (inactive).
In the case of `O=C(Nc1ccccc1)c1cnc2n(c1=O)CCS2`, the Kd is reported as > 4 mM (inactive).
With `Cc1cc(/C=N/O)nc(=O)[nH]1` the Kd was > 4 mM (inactive).
In the case of `Cc1noc(C)c1C(=O)Nc1cccnc1`, the Kd is reported as > 4 mM (inactive).
In the case of `CC(=O)Nc1cccc(-c2nnc(-c3ccccc3)o2)c1`, the Kd is reported as > 4 mM (inactive).
For `CC(=O)c1cccc(NC(=O)C=C(C)C)c1`, the Kd was > 4 mM (inactive).
`CC1=NN2C(=N)CC(=O)N=C2S1` was tested, and the Kd was > 4 mM (inactive).
`O=C(O)C1CSC(c2ccc(Cl)cc2)N1` (configuration not stated) was tested, and the Kd was > 4 mM (inactive).
With `Cc1ccc2nc(SCC(=O)O)nc(C)c2c1` the Kd was > 4 mM (inactive).
`Cc1onc(-c2ccc(F)cc2)c1C(=O)O` was tested, and the Kd was > 4 mM (inactive).
In the case of `Cn1cnc2nc3n(c2c1=O)CCC3`, the Kd is reported as > 4 mM (inactive).
`O=C1NC(=S)NC(=O)C1=Cc1ccccc1O` was tested, and the Kd was > 4 mM (inactive).
With `Cn1ccc(C(=O)NC(=S)NN2CCOCC2)n1` the Kd was > 4 mM (inactive).
`Cc1nc(-c2ccc(C(=O)O)s2)cs1` was tested, and the Kd was > 4 mM (inactive).
`COc1ccc(C(N)=O)cc1NC(C)=O` was tested, and the Kd was > 4 mM (inactive).
`Cc1ccc(-c2cc(C(=O)N3CCCC3)no2)cc1` was tested, and the Kd was > 4 mM (inactive).
In the case of `O=C(Nc1ccc2ccccc2c1)c1cnccn1`, the Kd is reported as > 4 mM (inactive).
In the case of `Nc1cccnc1Oc1ccc(F)cc1F`, the Kd is reported as > 4 mM (inactive).
In the case of `Cc1ccc(C(O)c2nccn2C)o1` (configuration not stated), the Kd is reported as > 4 mM (inactive).
With `O=c1c2ccccc2nc2n1CCS2` the Kd was > 4 mM (inactive).
`COc1c2occc2cc2ccc(=O)oc12` was tested, and the Kd was > 4 mM (inactive).
In the case of `COC(=O)c1cccc(N)c1`, the Kd is reported as > 4 mM (inactive).
`NC(=O)c1ccc(-c2csnn2)cc1` was tested, and the Kd was > 4 mM (inactive).
In the case of `NCCC(=O)N[C@@H](Cc1cnc[nH]1)C(=O)O`, the Kd is reported as > 4 mM (inactive).
In the case of `O=C(Nc1cccnc1)c1ccc(Br)s1`, the Kd is reported as > 4 mM (inactive).
`Cc1cc(SCC(=O)c2ccccc2)nc(=O)[nH]1` was tested, and the Kd was > 4 mM (inactive).
`COc1ccc2c(c1)OC/C(=C/c1ccc(OC)c(OC)c1)C2=O` was tested, and the Kd was > 4 mM (inactive).
With `NC(=O)CSc1nc2ccccc2[nH]1` the Kd was > 4 mM (inactive).
For `COc1cccc(S(=O)(=O)Nc2cccnc2)c1`, the Kd was > 4 mM (inactive).
For `NS(=O)(=O)c1ccc2c(c1)OCCO2`, the Kd was > 4 mM (inactive).
With `O=C1OC(N2CCOCC2)c2ccccc21` (configuration not stated) the Kd was > 4 mM (inactive).
`O=C(c1cc2ccccc2o1)c1nc2c(n1O)CCCCC2` was tested, and the Kd was > 4 mM (inactive).
For `COc1ccc2cc1Oc1ccc(cc1)C[C@H]1c3cc(c(OC)cc3CCN1C)Oc1c(OC)c(OC)cc3c1[C@H](C2)N(C)CC3`, the Kd was > 4 mM (inactive).
With `CCn1nccc1C(=O)Nc1ccc(Cl)cc1Cl` the Kd was > 4 mM (inactive).
In the case of `O=c1oc(-c2ccccc2)nc2c1cnn2-c1ccccc1`, the Kd is reported as > 4 mM (inactive).
With `O=CN1CCN(C(=O)c2ccccc2F)CC1` the Kd was > 4 mM (inactive).
`Cc1cc(C)cc(OC(=O)N2CCOCC2)c1` was tested, and the Kd was > 4 mM (inactive).
`CC(=O)c1c(O)cc(C)n(Cc2ccccc2)c1=O` was tested, and the Kd was > 4 mM (inactive).
For `Nc1ncnc(Cl)c1[N+](=O)[O-]`, the Kd was > 4 mM (inactive).
In the case of `O=C1COc2cc(O)ccc21`, the Kd is reported as > 4 mM (inactive).
In the case of `CC(=O)O[C@@H]1c2c(ccc3ccc(=O)oc23)OC(C)(C)[C@@H]1OC(=O)CC(C)C`, the Kd is reported as > 4 mM (inactive).
`CCCCC(Nc1n[nH]c(=O)[nH]c1=O)C(=O)O` (configuration not stated) was tested, and the Kd was > 4 mM (inactive).
